Measured values as given in patent US20100286200A1, “COMBINATION OF METFORMIN AND AN MTP INHIBITOR” (JANSSEN PHARMACEUTICA NV, priority 2008, published 2010).

Key:
[1] = test system: subjects with type 2 diabetes mellitus undergoing metformin treatment; assay: Proof-of-concept 12-week double-blind, randomized, placebo-controlled study of the MTP inhibitor in subjects on metformin treatment; type: in vivo, human
Excerpt: Proof-of-concept study of combinations of metformin and the MTP inhibitor (+)-phenyl-(4-{4-[(4′-trifluoromethyl-biphenyl-2-carbonyl)-amino]-phenyl}-piperidin-1-yl)-acetic acid methyl ester
Safety and efficacy of the MTP inhibitor (+)-phenyl-(4-{4-[(4′-trifluoromethyl-biphenyl-2-carbonyl)-amino]-phenyl}-piperidin-1-yl)-acetic acid methyl ester in the treatment of subjects with type 2 diabetes mellitus undergoing metformin treatment has been investigated. Three dosing regimens of the MTP inhibitor, 5-10-15 mg bid, were compared to placebo in a double-blind, randomized, parallel-group study design of 12 weeks wherein all subjects were following metformin treatment. All subjects remained on a calorically appropriate, low fat (≦30%) diet, being in accordance with the local practice guidelines for the treatment of type 2 diabetes.
Subjects randomized into the study had to have type 2 diabetes for at least 3 months and remained on a stable metformin monotherapy for at least 2 months. There were 88, 84, 91 and 89 patients randomized to placebo, 5 mg, 10 mg and 15 mg BID. Mean age was 55 years and there were slightly more males than females randomized into the study (males:females—54%:46%).
The mean baseline glycosylated hemoglobin (HbA1c) was 7.8±0.8% (mean±SD) and the mean plasma glucose was 9.1±1.80 mmol/L (mean±SD). The majority (68%) of subjects had HbA1c levels≦8%.
Mean weight at baseline was 94.9 kg and varied between 92.8 kg and 96.7 kg in different treatment groups, while the mean baseline BMI was 32.8 kg/m^2.

[2] = cited from earlier work
[3] = 5 mg bid, with metformin, week 12
[4] = 10 mg bid and 15 mg bid, combination with metformin
[5] = 10 mg bid, with metformin, Week 12
[6] = 15 mg bid, with metformin, Week 12

With `COC(=O)C(c1ccccc1)N1CCC(c2ccc(NC(=O)c3ccccc3-c3ccc(C(F)(F)F)cc3)cc2)CC1` (single isomer, unassigned; (+)) [(+)-phenyl-(4-{4-[(4′-trifluoromethyl-biphenyl-2-carbonyl)-amino]-phenyl}-piperidin-1-yl)-acetic acid methyl ester] as the compound, how does the “mean body weight loss at Week 12” value ([1]; 5 mg bid, with metformin) read?
Its value is 1.71 kg.

What about the “mean body weight loss at Week 12 (percent)” value ([1]; 5 mg bid, with metformin) of the same compound?
The value was 1.0%.

What about the “mean percentage change from baseline at week 12 in fasting plasma glucose (FPG)” value (“mean percentage change from baseline” for short) ([1]; 5 mg bid, with metformin) of the same compound?
The value was −2.3%.

What about the “mean decrease in HbA1c (%), change from baseline at Week 12” value (shortened to “mean decrease in HbA1c (%), change”) ([1]; 5 mg bid, with metformin, Week 12, baseline HbA1c 7.8±0.8%) of the same compound?
The value was −0.46%.

What about the “HbA1c least square mean (mixed model) difference from placebo” value [1, 3] of the same compound?
The value was 0.19.

And the “absolute change from baseline in FPG (decrease)” value (from here on “absolute change … (decrease)”) [1, 3]?
Its value is 0.37 mmol/L.

What about the “LDL levels (fasting plasma lipids)” value [1, 4] of the same compound?
Its value is “Beneficial effects”.

What about the “ratio of LDL over HDL (fasting plasma lipids)” value [1, 4] of the same compound?
Its value is “Beneficial effects”.

What about the “mean body weight loss at Week 12” value ([1]; 10 mg bid, with metformin) of the same compound?
Its value is 2.80 kg.

What about the “mean body weight loss at Week 12 (percent)” value ([1]; 10 mg bid, with metformin) of the same compound?
Its value is 2.9%.

What about the “mean percentage change from baseline” value ([1]; 10 mg bid, with metformin) of the same compound?
The value was −6.1%.

What about the “HbA1c least square mean (mixed model) difference from placebo” value [1, 5] of the same compound?
The value was 0.28.

And the “absolute change … (decrease)” value [1, 5]?
The value was 0.063 mmol/L.

What about the “mean decrease in HbA1c (%), change” value [1, 5] of the same compound?
The value was −0.55%.

What about the “mean body weight loss at Week 12” value ([1]; 15 mg bid, with metformin) of the same compound?
The value was 3.37 kg.

And the “mean body weight loss at Week 12 (percent)” value ([1]; 15 mg bid, with metformin)?
Its value is 3.6%.

And the “mean percentage change from baseline” value ([1]; 15 mg bid, with metformin)?
The value was −6.0%.

What about the “HbA1c least square mean (mixed model) difference from placebo” value [1, 6] of the same compound?
Its value is 0.28.

What about the “absolute change … (decrease)” value [1, 6] of the same compound?
Its value is 0.63 mmol/L.

What about the “mean decrease in HbA1c (%), change” value [1, 6] of the same compound?
The value was −0.54%.

And the “change from baseline at Week 12 of HbA1c levels vs. placebo (mixed model analysis)” value ([1]; all active treatment arms (5, 10, 15 mg bid), with metformin)?
The value was “statistically significant decrease vs. placebo”.

What about the “metabolism in the plasma” value [2] of the same compound?
Its value is “rapidly metabolised in the plasma”.

What about the systemic plasma concentrations [2] of the same compound?
The systemic plasma concentrations was “very low systemic plasma concentrations”.
